# Square brackets hold non-standard residues; d marks the D form. Ends that are not written are not given here.
# B1: FOXO4: fragment of human FOXO4 (Uniprot ID P98177) from amino acid 86 to 207, recombinant forkhead domain (protein)
# chain: GAVTGPRKGGSRRNAWGNQSYAELISQAIESAPEKRLTLAQIYEWMVRTVPYFKDKGDSNSSAGWKNSIRHNLSLHSKFIKVHNEATGKSSWWMLNPEGGKSGKAPRRRAASMDSSSKLLRG
# Legend:
# [1] = system: triple-negative breast cancer cell line MDAMB231; experiment: Immunofluorescence of MDAMB231 cells surviving the LD50 dose (FIG. 13); format: cell-based, human; conditions: staining two days later, survivors have low PML and p53 (S392)
# Procedure: A) The triple-negative breast cancer cell line MDAMB231 was treated with the LD50 dose, determined in previous assays. Two days later, an immunofluorescence staining was performed for the indicated proteins. B) Therapy-survivors are made up primarily of cells with low levels of these proteins.
# (§1) To study the selectivity of different therapies for cancer cells, colorimetric-based cytotoxicity assays were performed two days following treatments. Cells from several different cancer types (breast, ovarian, pancreas, gastric lung and liver cancer) were cultured in 96-wells plates with 4000 cells per well. These were treated with a serial dilution of compounds in triplicates and mock-treatments ([…], since peptides were dissolved therein). The AQeousOne Solution Cell Proliferation Assay Kit was used to assess cell viability, according to the manufacturer's instructions. In short, the old medium was removed and 100 μl of fresh medium and 10 μl of CellTiter AQueousOne solution were added to each well. The plates were incubated for 1 hour at 37° C. The resulting colorimetric reactions were read at 490 nm on a Microplate Absorbance Reader. Relative survival was determined by normalization of the results to Mock (=100% alive). […]
# [2] = system: human breast cancer cell lines; experiment: MTS viability assay in human breast cancer cell lines versus number of PML bodies (FIG. 7); format: cell-based
# Text: Spearman's rank correlation coefficient (0.93) given; B) Correlation of open P53 (Pab240 clone) and P53 pSer392 (EP155Y clone) staining in a panel of eight human breast cancer lines including luminal, Her2 positive and triple-negative. Spearman's rank correlation coefficient (0.88) given; and C) Association between PML body count/nuclear pixel (to correct for variation in nucleus size between lines) and nuclear P53 pSer392 staining intensity in eight human breast cancer lines plotted against the effective dose inducing cell death in 50% of the population (ED50, as measured by MTS assay) after treatment with CL04177 for these cell lines. Sensitive cell lines are highlighted by the box.
# To study the selectivity of different therapies for cancer cells, colorimetric-based cytotoxicity assays were performed two days following treatments. […] The resulting colorimetric reactions were read at 490 nm on a Microplate Absorbance Reader. Relative survival was determined by normalization of the results to Mock (=100% alive). […]
# Six days after treatment, cells were incubated with 10 μl CellTiter 96® AQueous One Solution Cell Proliferation Assay (Promega) for 1 hour at 37° C. to perform an MTS assay. Subsequently, absorbance was measured at 490 nm using a Spectramax M5e.
# [3] = system: cancer cell lines with wildtype or "open" p53 conformation; experiment: Viability curves / ED50 in cell lines from several types of cancer by p53 conformation (FIG. 14); format: cell-based; conditions: cancers with genetic mutations in p53, versus wildtype p53 conformation
# Text: FIG. 14 The CL04177 peptide targets cells from multiple types of cancer, with a higher selectivity towards cell lines that are genetically predisposed towards expressing p53 in its “open” conformation through TP53 mutations. Viability curves exemplifying the response to the peptide for two cell lines, A) A2780 that has a wildtype p53 conformation and B) H23, which contains p53 with an “open” conformation based on genetic mutations in p53.
# as §1
# [4] = system: MDA-MB-231 firefly luciferase-containing cells, metastases; experiment: Anti-metastatic activity in vivo in an orthotopic TNBC model (FIG. 8); set-up: species or system NSG mice
# Procedure: PBS-treated mice developed metastatic growth visible by bioluminescence.
# Approval for this study was obtained by the local University Animal Experimental Committee at the University Medical Center Utrecht (IVD-UMC; WP numbers 9124-1-02 and −05). MDA-MB-231 firefly luciferase-containing cells were transplanted orthotopically into the exposed inguinal mammary fat pad as single cells at a density of 1 millionn cells in 50 ul of a medium into NSG mice (NOD.Cg-PrkdcIL2rgmWij/Szj) (stock 005557). Carprofen was injected s.c. as analgesia following the surgery. Animals were purchased from Charles River and maintained in a pathogen-free environment.
# Tumor growth dynamics were quantified in mice with established tumors (>50 mm3). […] After 2 weeks of recovery, mice were sacrificed. For in vivo dosing, the peptides were dissolved in PBS. We used 11 mice per group that were randomly assigned to the different treatment groups before the start of the experiment.
# To visualize tumor burden in a live mouse, mice were injected with luciferin substrate i.p. at 150 mg/kg, and imaged under isoflurane anesthesia 15 min later using a bioluminescence imager. The M3Vision software was used to analyze the bioluminescence signal by taking a region of interest (ROI) around the primary tumor to evaluate the BL signal from the tumor or around the upper abdomen and chest of the mouse to evaluate the signal from metastases. The signal was measured in photons/s/cm2.
# [5] = system: CRC29 colorectal cancer organoid line, liver metastases; experiment: Colorectal cancer organoid CRC29 caecum implant model, liver metastasis (FIG. 9); format: in vivo, immunodeficient mice; conditions: 50 mg/kg 5-FU, 3 doses of 2.5 mg/kg CL04183, versus PBS
# Procedure: The colorectal cancer organoid line CRC29 was implanted in the caecum of immunodeficient mice. Two weeks after transplantation the animals were treated with either ‘5-Fluorouracil (5-FU) or PBS. […] A) The livers were stained for KU80 or human nucleoli to detect human cancer cells in the mouse organs, together with p-p53 (T55) or PML. B) The number of liver metastases per stained section was counted by eye.
# Mouse experiments were performed after approval from the Dutch animal ethics committee (WP number 9124-1-03). NOD.Cg-Prkdcscid Il2rgtm1Wjl/SzJ/J mice were purchased from Charles River and maintained in a pathogen-free environment. The animals were anaesthetized using 75 mg/kg ketamine and 0.5 mg/kg dexmedetomidine injected i.p., while 5 mg/kg carprofen was injected s.c. as analgesia. Subsequently, CRC29 organoids (250000 cells) containing a firefly luciferase construct were transplanted into the caecum in a 10 μl collagen droplet. Two weeks after tumor cell implatation the animals were treated with either 50 mg/kg ‘5-Fluorouracil (5-FU) or PBS. […] Four weeks after transplantation, the mice were sacrificed, and tissues were collected for further processing.
# [6] = target: p53-TAD2 phosphorylated at T55 or S46 (Homo sapiens, UniProt P04637); experiment: Fluorescence anisotropy binding assay with FITC-labelled p53 peptides (FIG. 3); conditions: versus non-phosphorylated p53-TAD2
# p53-TAD2 phosphorylated at T55 or S46, sequence (P04637 37-57 limits assumed): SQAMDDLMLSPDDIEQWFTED
# Procedure: Data was acquired on a ClarioStar Plus plate reader. Endpoint measurement with 200 flashes per well were performed. An excitation filter with 482 nm wavelength and emission filter with 530 nm were used and gain adjustment as well as focal height adjustment were performed for each measurement. Fluorescence intensity, parallel fluorescence polarization and perpendicular fluorescence polarization were recorded. Data analysis was performed using MARS Version 3.4 (BMG), Microsoft Excel and GraphPad Prism Version 8.
# For measurements, 116 μl of a solution of the specific Cleara peptides (ranging from 1 to 100 μM) were prepared. Subsequently 4 μl of FITC-labelled p53 peptides (stock concentration 15 μM, resulting in a final concentration of 500 nM) were added. 35 μl were then transferred in each well of the 384-well plate. Measurements were performed in triplicates. If necessary, this setup was extended with lower concentrations in order to cover strong interactions.
# The anisotropy (r) is defined as the ratio of the polarized component to the total intensity (IT):
# where the excitation is polarized along the z-axis, emission from the fluorophore is symmetric around the z-axis, so Ix=Iy and […], resulting in:
# The obtained anisotropy values for each concentration of CL peptide can be used to determine the binding affinity, by applying following fitting function: […]
# [7] = daily s.c. for one week, 2.5 mg/kg CL04183, 10 mg/kg CL04177, versus PBS
molecule,measurement,setting,value
"RKKASSKIEAEILDAFSQNWRRKRPPRRRQRRKKRG ([dR][dK][dK][dA][dS][dS][dK][dI][dE][dA][dE][dI][dL][dD][dA][dF][dS][dQ][dN][dW][dR][dR][dK][dR][dP][dP][dR][dR][dR][dQ][dR][dR][dK][dK][dR]G; listed as Homo sapiens) [CL04177, retro-inverso peptide derived from human FOXO4]",cell population targeted,[1],targets cells with increased PML bodies and phosphorylated p53
same,sensitivity of cell lines to the peptide,[2]; breast cancer lines with few PML bodies,less sensitive
same,sensitivity of cell lines to the peptide,[2]; triple-negative lines with high levels of PML bodies,highly sensitive
same,"sensitivity (ED50s) of cancers predisposed towards ""open"" p53",[3],more sensitive
same,effect on liver metastases,[4]; FIG. 8,specifically counteract liver metastases
same,incidence of liver metastasis (bioluminescence of tumor cells in the extracted livers),[4]; [7],decreased the incidence of liver metastasis
same,incidence of visible metastasis (bioluminescence),[4]; [7],decreased the incidence of visible metastasis
"O=c1[nH]cc(F)c(=O)[nH]1 [5-FU, 5-Fluorouracil]",effect on liver metastases,[5],specifically counteract liver metastases
B1,affinity to p53-TAD2 when phosphorylated at T55 or S46,[6],substantially higher affinity
